Assay [1] relates to adjuvant arthritis model in rats. Kind of assay: Established Adjuvant Arthritis Test. The format is in vivo. How it is done:
Established Adjuvant Arthritis Test
Representative compounds of the invention were tested in the standard adjuvant arthritis model in rats, induced by Freunds complete adjuvant, as described by C. E. Brinckerhoff, J. W. Coffey and A. C. Sullivan, Science, 221, p. 756-758 (1983).

The next assay has as its system PLA2 Rat Paw Edema. The experiment in a line: Phospholipase A2 Rat Paw Edema. The format is in vivo, Lewis rats. To be noted: for inhibition in vivo at 30 mg/kg: Rattus norvegicus, 2 hr, read-out: % Inhib of PLA2 Rat Paw Edema 2 hr (30 mg/kg). In outline: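 Lewis rats (~200 g, n=7) dosed i.p. (in DMSO) or orally (in Labrafil M-1944CS) 1 h before subplantar injection of 5 ug Naja naja PLA2 into right hind paw. Paw volume by plethysmometry at 0.5, 2 and 4 hr minus baseline; % change versus vehicle, Student's t-test.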

For another assay, the target named is T1, HSF-PLA2 (Homo sapiens, UniProt P14555).
T1 construct: extracellular enzyme obtained from human synovial fluid (HSF-PLA2); from tissue; host or cells: pooled human synovial fluid, added at 0.1% (v/v)
T1 sequence (P14555 21-144): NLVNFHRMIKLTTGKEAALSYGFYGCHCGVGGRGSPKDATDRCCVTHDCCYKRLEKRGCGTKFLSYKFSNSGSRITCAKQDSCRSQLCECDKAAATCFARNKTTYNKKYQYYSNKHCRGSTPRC
Kind of assay: Assay for Inhibition of HSF-PLA2 In Vitro. To be noted: for IC50: read-out: Inhib of HSF-PLA2 IC50. The format is biochemical. In outline:
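Extracellular PLA2 isolated from human synovial fluid, incubated 30 min at 37 °C with 14C-labelled phospholipid substrate in duplicate. Lipids were chloroform-extracted, and released 14C-oleic acid was separated from substrate by silica TLC; a no-enzyme control was run in each experiment.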

The subject of assay [2] is Naja naja snake venom PLA2 (SV-PLA2). Kind of assay: Assay for inhibition of snake venom PLA2 (SV-PLA2) in vitro. Conditions: read-out: Inhib of SV-PLA2 IC50. The format is biochemical. As to the method:
ASSAY FOR INHIBITION OF SNAKE VENOM PLA2 (SV-PLA2) IN VITRO
Several representative compounds of the invention were also tested as inhibitors of Naja naja snake venom PLA2 (SV-PLA2). The assay employed in this study was the spectrophotometric method described by: C. Vigo, G. P. Lewis and P. J. Piper in Biochemical Pharmacology, 29:623-627 (1983), which was modified as described by: A. F. Welton, L. D. Tobias, C. Fiedler-Nagy, W. Anderson, W. Hope, K. Meyers and J. W. Coffey in "Plant Flavonoids in Biology and Medicine: Biochemical, Pharmacological and Structure-Activity Relationships", p 231-242, (1986) Alan R. Liss, Inc. The PLA2 paw edema model, (data in Table I) is initiated by injection of SV-PLA2.

For assay [3], the system named is Croton Oil Mouse Ear Edema. The experiment in a line: Croton Oil Mouse Ear Edema Test. The format is in vivo, CD-1 mice. Conditions: topical, coapplied, 6 hours.
Description: Twenty five μl of a 1% croton oil solution [dissolved in a mixture of pyridine/water/diethyl ether at a ratio of 5/20/75 (croton oil vehicle)] are applied to the outer side of the right ear of 3-4 week old made CD-1 mice (8 animals per group). The test compounds are dissolved directly in the 1% croton oil solution at various concentrations and coapplied. Control animals receive 25 μl of croton oil vehicle on the right ear. Biopsy punches are removed at 6 hours from the right ear of the animals using a 6 mm skin trephine (Roboz, Washington, D.C.) and the wet weight of the ear punches is determined. The weight of the biopsy punches is a measure of ear inflammation, primarily edema. The data are expressed as percent inhibition relative to control groups.
In assay [4] the test system is Acetic Acid-Induced Colitis in Rats. The experiment in a line: Acetic Acid-Induced Colitis in Rats. The format is in vivo, rats (Sprague-Dawley). An excerpt:
Acetic Acid-Induced Colitis in Rats The rat acetic acid-induced colitis bioassay has been described by J. E. Krawisz, et al. in Amer. J. Proc. Gastro. Col. Rec. Surg. 31: 11-18 (1980), and by P. Sharon and W. F. Stenson in Gastroenterology 88: 55-63 (1985) and 86:453-460 (1984). Acetic acid-induced colitis is characterized by the movement of inflammatory cells into the colon, with the number of such cells in the mucosa being measured by the activity of myeloperoxidase, a marker enzyme for these cells. Positive desirable activity is indicated by a reduction in the high levels of myeloperoxidase caused by acetic acid. […] The animals were administered a second dose of the test compound in the same amount about 16 hours later. Then 24 hours after the acetic acid treatment, the animals were sacrificed. The colonic mucosa was surgically removed and homogenized in an aqueous buffer at pH 6 with a Tissumizer or similar device and myeloperoxidase was measured in the homogenate using o-phenylenediamine as a cromagen, as described by […] and A. Bartlett in "The Enzyme Linked Immunosorbent Assay (ELISA)", Zoological Soc., London, 1979, pages 29-30. Control animals were pretreated with the vehicle and saline in place of acetic acid.

Assay [5] deals with rat carrageenan-induced paw edema. Kind of assay: Rat Carrageenan Paw Edema. The format is in vivo, Lewis rats. Conditions: 2 h; for inhibition in vivo at 30 mg/kg: 30 mg/kg ip. As to the method:
Rat Carrageenan Paw Edema
Representative compounds of the invention were tested in rat carrageenan-induced paw edema to determine their ability to inhibit this acute inflammatory response. Test compounds are administered intraperitoneally or orally to groups of seven Lewis rats (≈200 gm) 1 hr prior to carrageenan administration. The test compounds are dissolved in dimethyl sulfoxide for intraperitoneal administration and dissolved or suspended in Labrafil […] for oral administration. At 0 hour, 0.1 mL of 1% carrageenan dissolved in pyrogen free saline is injected subplantarly into the right hind paw to elicit the inflammatory response. The volume (in mL) of the right hind paw is measured by immersion of the paw to the level of the lateral malleolus in an aqueous plethysmometer immediately prior to the injection of carrageenan and then at 1, 2 and 4 hr after carrageenan injection. The paw edema is calculated by substracting the zero time reading from the readings taken after injection. The percent change of the edema volume from the vehicle treated control is calculated to determine the activity of the test compound. Statistical analysis of the mean paw edema values of the control versus the treated groups are performed using Student's t-test.

The next assay deals with mouse skin. Conditions: cited from earlier work.

On to `CCCCCCCCCCOc1cc(OCCCCCCCCCC)cc(N(CC(=O)O)CC(=O)O)c1` [Example 6, N-(Carboxymethyl)-N-[3,5-bis(decyloxy)phenyl]glycine], for which the “Change in Paw Volume (mL) Treated” value in assay [1] (30 mg/kg ip) is reported as -0.04 ± 0.24 mL. For the same molecule, the inhibition in vivo at 30 mg/kg in the assay with PLA2 Rat Paw Edema is 45%. Also, the IC50 (as a rule, the concentration needed to halve the response being measured) was found to be 240 nM on HSF-PLA2 and 17 nM in assay [2]. Also, the “% Inhib of Croton Oil Mouse Ear Edema (1 mg)” value (from here on “% Inhib … (1 mg)”) in assay [3] turned out to be 13%.
With `CCCCCCCCOc1cc(OCCCCCCCC)cc(N(CC(=O)O)CC(=O)O)c1` [Example 6c, N-(carboxymethyl)-N-[3,5-bis(octyloxy)phenyl]glycine], in the assay with PLA2 Rat Paw Edema, the inhibition in vivo at 30 mg/kg came out at 7%. The IC50 is 400 nM at HSF-PLA2 and 22 nM in assay [2]. Also, the “% Inhib … (1 mg)” value in assay [3] stood at 0%.
Turning to `CCCCCCCCCCCCOc1cc(OCCCCCCCCCCCC)cc(N(CC(=O)O)CC(=O)O)c1` [Example 6d, N-(carboxymethyl)-N-[3,5-bis(dodecyloxy)phenyl]glycine], the IC50 was found to be 50 nM on HSF-PLA2 and 170 nM in assay [2]. Moreover, the “% Inhib … (1 mg)” value in assay [3] came out at 21%.
As for `CCCCCCCCCCCCCCOc1cc(OCCCCCCCCCCCCCC)cc(N(CC(=O)O)CC(=O)O)c1` [Example 6e, N-(carboxymethyl)-N-[3,5-bis(tetradecyloxy)phenyl]glycine], the “% Inhib of PLA2 Rat Paw Edema 2 hr” value with PLA2 Rat Paw Edema ((50 mg/kg)) turned out to be 44%. The IC50 on HSF-PLA2 amounted to 130 nM. In assay [4], the “% Inhibition of Myeloperoxidase Accumulation at 10 mg/kg po” value (shortened to “% Inhibition”) is 145 ± 72%.
With `CCCCCCCCCCNC(=O)c1cc(C(=O)NCCCCCCCCCC)cc(N(CC(=O)O)CC(=O)O)c1` [Example 16, N-(Carboxymethyl)-N-[3,5-bis[(decylamino)carbonyl]phenyl]glycine], the inhibition in vivo at 30 mg/kg in the assay with PLA2 Rat Paw Edema came out at 0%. The IC50 amounted to 300 nM on HSF-PLA2 and 50 nM in assay [2]. Moreover, in assay [3], the “% Inhib … (1 mg)” value worked out at 10%. For the same molecule, in assay [4], the “% Inhibition” value is on record as 212 ± 124%.
Consider `CCCCCCCCCCCCCCCCCCOc1cccc(N(CC(=O)O)CC(=O)O)c1` [Example 36, N -(Carboxymethyl)-N-[3-(octadecyloxy)phenyl]glycine], for which the 50% inhibitory concentration (IC50) at HSF-PLA2 stood at 170 nM. Besides, the “% Inhib … (1 mg)” value in assay [3] came out at 21%. Further, the “% Inhibition” value in assay [4] stood at 190 ± 76%.
With `CCCCCCCCc1ccc(N(CC(=O)O)CC(=O)O)cc1` [Example 39c, N-(carboxymethyl)-N-(4-octylphenyl)glycine], the figures for the IC50 (on HSF-PLA2; in assay [2]) were 1700 nM and 66 nM, respectively.
The molecule `CCCCCCCCCCCCCCCCCCOc1cc(OCCCOc2cccc([N+](=O)[O-])c2)cc(N(CC(=O)O)CC(=O)O)c1` [Example 58m, N-(carboxymethyl)-N-[3-[3-(3-nitrophenoxy)propoxy]-5-(octadecyloxy)phenyl]glycine] had an inhibition in vivo at 10 mg/kg in assay [5] (10 mg/kg ip) of 61%. In addition, in assay [1] (10 mg/kg ip), the “Change in Paw Volume (mL) Treated” value is 0.40 ± 0.13 mL. Besides, the inhibition in vivo at 30 mg/kg in the assay on PLA2 Rat Paw Edema came out at 52%. Moreover, the inhibition (commonly the drop in the measured response relative to a control, in per cent) at 1 µM on HSF-PLA2 ((1 μM), read-out: Inhib of HSF-PLA2, % inhibition) was found to be 79%. For the same molecule, in assay [3], the “% Inhib … (1 mg)” value is given as 60%.
As for `CCCCCCCCCCCCCCCCCCOc1cc(OCCCOc2cccc(N)c2)cc(N(CC(=O)O)CC(=O)O)c1` [Example 58n, N-(carboxymethyl)-N-[3-[3-(3-aminophenoxy)propoxy]-5-(octadecyloxy)phenyl]glycine], the inhibition in vivo at 30 mg/kg was determined as 65% in assay [5] and 4% in the assay on PLA2 Rat Paw Edema. In addition, in assay [1] (10 mg/kg ip), the “Change in Paw Volume (mL) Treated” value was determined as 0.23 ± 0.12 mL. Also, the concentration for half-maximal inhibition (IC50) on HSF-PLA2 was 130 nM. Also, the “% Inhib … (1 mg)” value in assay [3] is 64%.
Consider `CCCCCCCCCCCCCCCCCCOc1cc(OCCCCC(=O)OC)cc(N(CC(=O)O)CC(=O)O)c1` [Example 64], for which the inhibition in vivo at 30 mg/kg amounted to 69% in assay [5] and 61% with PLA2 Rat Paw Edema. Besides, the “Change in Paw Volume (mL) Treated” value in assay [1] (10 mg/kg ip) amounted to 0.65 ± 0.12 mL. The IC50 on HSF-PLA2 was 60 nM. Besides, the “% Inhib … (1 mg)” value in assay [3] amounted to 87%.
As to `CCCCCCCCCCCCCCCCCCOc1cc(OCCCP(=O)(OCC)OCC)cc(N(CC(=O)O)CC(=O)O)c1` [Example 88, N-(Carboxymethyl)-N-[3-[3-(diethoxyphosphinyl)propoxy]-5-(octadecyloxy)phenyl]glycine], the inhibition in vivo at 30 mg/kg in assay [5] stood at 57%; with PLA2 Rat Paw Edema it was 46%. In assay [1] (30 mg/kg ip), the “Change in Paw Volume (mL) Treated” value is given as -0.90 ± 0.11 mL. In addition, the IC50 at HSF-PLA2 was found to be 400 nM. The “% Inhib … (1 mg)” value in assay [3] amounted to 43%.
`COc1ccc2c(c1)c(CC(=O)O)c(C)n2C(=O)c1ccc(Cl)cc1` [Indomethacin]: in the assay on mouse skin, the “TPA-mediated increase in epidermal PGE2 levels” value is listed as “prevented” and the “TPA-mediated induction of epidermal cell ornithine decarboxylase” value was “prevented”.

The values above are taken from patent US5324747A, “N-substituted anilines, inhibitors of phospholipases A2” (Hoffmann-La Roche Inc., priority 1992, dated 1994).
